# Data published in US7902184B2, “Piperazinyl pyrimidine derivatives” (Hoffmann-La Roche Inc., priority 2006, dated 2011).
# Biological target: T1, histamine 3 receptor (H3R) (Homo sapiens, UniProt Q9Y5N1)
# T1 construct: expressed in transfected cells; host or cells: CHO cells (membranes)
# Assay: Binding assay with 3H-(R)α-methylhistamine (competition binding, H3R-CHO membranes)
# Conditions: membrane of the human H3R-CHO cell line; 3H(R)α-methylhistamine 1 nM; Ki calculated from IC50 by Cheng-Prusoff
# Protocol: Binding Assay with ^3H—(R)α-methylhistamine
# Saturation binding experiments were performed using HR3-CHO membranes prepared as described in Takahashi, K, Tokita, S., Kotani, H. (2003) J. Pharmacol. Exp. Therapeutics 307, 213-218.
# An appropriate amount of membrane (60 to 80 μg protein/well) was incubated with increasing concentrations of ^3H(R)α-methylhistamine di-hydrochloride (0.10 to 10 nM). Non specific binding was determined using a 200 fold excess of cold (R)α-methylhistamine dihydrobromide (500 nM final concentration). The incubation was carried out at room temperature (in deep-well plates shaking for three hours). The final volume in each well was 250 μl. The incubation was followed by rapid filtration on GF/B filters (pre-soaked with 100 μl of 0.5% PEI in Tris 50 mM shaking at 200 rpm for two hours). The filtration was made using a cell-harvester and the filter plates were then washed five times with ice cold washing buffer containing 0.5 M NaCl. After harvesting, the plates were dried at 55° C. for 60 min, then scintillation fluid (Microscint 40, 40 microl in each well) was added and the amount of radioactivity on the filter was determined in Packard top-counter after shaking the plates for two hours at 200 rpm at room temperature.
# Binding Buffer: 50 mM Tris-HCl pH 7.4 and 5 mM MgCl2×6H2O pH 7.4. Washing Buffer: 50 mM Tris-HCl pH 7.4 and 5 mM MgCl2×6H2O and 0.5 M NaCl pH 7.4.
# Indirect measurement of affinity of H3R inverse agonists: twelve increasing concentrations (ranging from 10 μM to 0.3 nM) of the selected compounds were always tested in competition binding experiments using membrane of the human H3R-CHO cell line. […]
# All compounds were tested at a single concentration in duplicate. […] Ki's were calculated from IC50 based on Cheng-Prusoff equation (Cheng, Y, Prusoff, W H (1973) Biochem Pharmacol 22, 3099-3108): Ki=IC50/[1+D/Kd] wherein D is the concentration of the radioligand and Kd is the binding constant for the radioligand binding to the receptor and the conditions used in the competition experiment.
# T1 sequence (Q9Y5N1 whole entry): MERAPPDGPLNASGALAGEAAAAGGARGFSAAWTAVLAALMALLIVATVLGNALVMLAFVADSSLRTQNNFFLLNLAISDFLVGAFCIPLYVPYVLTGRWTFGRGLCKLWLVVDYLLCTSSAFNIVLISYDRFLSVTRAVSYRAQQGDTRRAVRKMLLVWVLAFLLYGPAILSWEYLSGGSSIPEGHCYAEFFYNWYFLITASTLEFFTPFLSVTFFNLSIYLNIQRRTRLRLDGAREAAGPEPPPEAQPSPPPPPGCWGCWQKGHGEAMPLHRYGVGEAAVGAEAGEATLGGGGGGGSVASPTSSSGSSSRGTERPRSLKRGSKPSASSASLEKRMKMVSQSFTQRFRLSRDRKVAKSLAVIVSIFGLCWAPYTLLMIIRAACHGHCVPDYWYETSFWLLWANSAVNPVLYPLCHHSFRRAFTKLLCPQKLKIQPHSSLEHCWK
row,Compound,Ki
1,"O=C(Nc1ccnc(N2CCN(C3CCCC3)CC2)n1)N1CCCCCC1 [Example 6, azepane-1-carboxylic acid [2-(4-cyclopentyl-piperazin-1-yl)-pyrimidin-4-yl]-amide]",51 nM
2,"CC(C)N1CCN(c2cc(NC(=O)N3CCCCC3)ncn2)CC1 [Example 54, piperidine-1-carboxylic acid [6-(4-isopropyl-piperazin-1-yl)-pyrimidin-4-yl]-amide]",34.6 nM
3,"CC1CC(C)CN(C(=O)Nc2cc(N3CCN(C4CCCCC4)CC3)ncn2)C1 (stereo not drawn) [Example 93, 3,5-Dimethyl-piperidine-1-carboxylic acid [6-(4-cyclohexyl-piperazin-1-yl)-pyrimidin-4-yl]-amide]",22.2 nM
